Laboratory results as given in patent publication US20250368623A1, “PYRIDAZINONE-DERIVED COMPOUNDS FOR THE MODULATION OF MYC AND FOR MEDICAL USES” (GENETIC INTELLIGENCE, INC, priority 2022, published 2025).
pIC50: −log10 of the molar value.

What was measured:
[1] = test system: MYC protein; assay: MYC HTRF assay, MYC protein level in human cell lines; type: cell-based; settings: about 20 μM, 2-day incubation, human cell lines (e.g., A549, HepG2), vs DMSO-treated sample
Description: The MYC homogenous time-resolved fluorescence (HTRF) assay kit (CisBio/Perkin Elmer 63ADK053PEG) is used to quantify the level of MYC protein in human cell lines (e.g., A549, HepG2) following treatment with test compounds, according to the following protocol. Human cells cultured in DMEM-10% FBS media are seeded at 20,000 cells per well in a 96-well plate. After 1 day, the cells are treated with test compounds at a final concentration of about 20 μM. After a 2-day incubation period, the supernatant is removed from the wells and the HTRF assay is carried out according to the kit manufacturer's protocol. In brief, lysis buffer #4 is added to create cell lysates. 10 μL of cell lysate is added to 10 μL of premixed antibody solution (anti-human My c-Eu cryptate antibody and anti-human Myc-d2 antibody) prepared in detection buffer #3 in a 384-well low-volume white-walled plated. After 3 h of incubation, fluorescence readings are taken at the emission wavelengths of donor and acceptor fluorophores (620 nm and 665 nm respectively) using a HTRF-compatible plate reader. The ratio of acceptor and donor fluorescence emission signals for each sample is calculated by dividing the fluorescence signal at 665 nm by the signal at 620 nm, and further normalized by dividing with the concentration of total protein in that sample as determined by the BCA assay. The values so obtained are presented as a percentage of that of the no-compound, solvent only (DMSO)-treated samples. A lower percentage of MYC protein in a sample with respect to the DMSO-treated sample indicates greater percentage reduction in MYC protein level due to the test compound, and vice versa.

[2] = test system: MYC RNA; assay: RT-qPCR of MYC RNA in human cancer cell lines; type: cell-based; settings: 24 h, about 1 μM, 1-day incubation, e.g., A549, HepG2, beta-actin normalized, vs DMSO, read-out: % reduction of MYC RNA
Description: The level of reduction of MYC RNA following treatment with test compounds is assessed using RT-qPCR according to the following protocol. The human cancer cell lines (e.g., A549, HepG2) are seeded at 20,000 cells per well in a 96-well plate. After 1 day, the cells are treated with test compounds at a final concentration of about 1 μM. After a 1-day incubation period, the supernatant is removed from the wells and lysis solution from the Cells-to-CT 1-Step Power SYBR Green Kit (Invitrogen A25599) is added to create cell lysates, according to the kit manufacturer's protocol. The kit manufacturer's protocol is then followed to perform RT-qPCR for each sample using a pair of MYC-specific primers (e.g., SEQ ID NO: 4 and SEQ ID NO: 5) to detect MYC RNA, as well as a pair of beta-actin-specific primers (e.g., SEQ ID NO: 6 and SEQ ID NO: 7) to detect beta-actin RNA, which serves as a loading control. The relative expression levels of MYC and beta-actin RNAs are calculated using a standard curve generated from a dilution series of untreated cell lysates. The normalized level of MYC RNA following treatment with a test compound is calculated by dividing the relative expression level of MYC in the sample by the relative expression level of beta actin in the same sample. The value so obtained is presented as a percentage of that of the no-compound, solvent only (DMSO)-treated sample. A lower percentage of MYC RNA in a sample with respect to the DMSO-treated sample indicates greater percentage reduction in MYC RNA levels due to the test compound, and vice versa.

[3] = test system: JeKo-1; assay: CCK-8 cell viability assay, JeKo-1; type: cell-based; settings: Homo sapiens; CCK-8, JeKo-1, 2-day or 3-day incubation, cytotoxic effect
Description: (§1) The effect of test compounds on cell viability is determined using the CCK-8 assay kit (Dojindo CK04-1000) according to the following protocol. The human cancer cell lines (e.g., A549, HepG2, JeKo-1, MDA-MB-231, etc.) and non-cancer human cell lines (e.g., HEK-293, HaCaT, etc.), are seeded at 20,000 cells per well in a 96-well plate. After 1 day, the cells are treated with test compounds at various final concentrations (e.g., 10 nM, 31.6 nM, 100 nM, 316 nM, 1 μM, 3.16 μM, 10 μM, 20 μM, etc.). After a 2-day or 3-day incubation period, 10 μL of CCK-8 solution, which contains the WST-8 dye, is added to each well according to the kit manufacturer's protocol. After incubation for 1-4 hours, the absorbance at 450 nm is measured using a microplate reader. The absorbance at 450 nm measures the amount of WST-8 that is reduced to WST-8 formazan by cellular dehydrogenases, which is directly proportional to the number of living cells. The cytotoxic effect of test compounds at different concentrations is calculated by subtracting from 1 the ratio of absorbance of the compound-treated sample at 450 nm to that of the no-compound, solvent only (DMSO)-treated sample. A higher number indicates a greater cytotoxic effect of the test compound on cells (corresponding to a greater reduction in cellular dehydrogenase activity), and vice versa. The IC50 values for the cytotoxic effect of each test compound in A549, HepG2, JeKo-1, and/or MDA-MB-231 cells are determined by plotting a dose-response curve to calculate the concentration of test compound that produces half of the maximum cytotoxic effect. The cytotoxic effect and IC50 of test compounds are also measured in a non-cancer human cell line (e.g., HEK-293, and/or HaCaT) as a proxy for healthy cells to determine the therapeutic window of the test compounds (i.e., the concentration range at which the test compounds selectively kill cancer cells but not healthy cells). The therapeutic index of a test compound is defined herein as its IC50 in HEK-293 cells divided by its IC50 in HepG2 cells.

[4] = test system: MDA-MB-231; assay: CCK-8 cell viability assay, MDA-MB-231; type: cell-based; settings: Homo sapiens; CCK-8, MDA-MB-231, 2-day or 3-day incubation, cytotoxic effect
Description: as §1

[5] = test system: HepG2; assay: CellTiter-Glo 2.0 cell viability assay, HepG2; type: cell-based; settings: Homo sapiens, 48 h; CellTiter-Glo 2.0, HepG2, 2-day incubation
Description: The effect of test compounds on cell viability is also determined using the CellTiter-Glo 2.0 assay kit (Promega G9241) according to the following protocol. The human cancer cell line (e.g., HepG2) and a non-cancer human cell line (e.g., HEK-293), are seeded at 20,000 cells per well in a 96-well plate. After 1 day, the cells are treated with test compounds at various concentrations (e.g., 10 nM, 31.6 nM, 100 nM, 316 nM, 1 μM, 3.16 μM, 10 μM, 20 μM, etc.). After a 2-day incubation period, the CellTiter-Glo 2.0 assay is performed according to the kit manufacturer's protocol. […] The contents are mixed for 2 minutes on an orbital shaker to induce cell lysis, and incubated for 10 minutes at room temperature, following which the luminescent signal is measured using a microplate reader. […] The cytotoxic effect of test compounds at different concentrations is calculated by subtracting from 1 the ratio of the luminescence signal of the compound-treated sample to that of the no-compound, solvent only (DMSO)-treated sample. […] The IC50 values for the cytotoxic effect of each test compound in HepG2 cells are determined by plotting a dose-response curve to calculate the concentration of test compound that produces half of the maximum cytotoxic effect. […]

[6] = test system: HEK-293; assay: ApoTox-Glo Triplex assay (live-dead ratio), HEK-293; type: cell-based; settings: Homo sapiens, HEK293, 48 h, HEK-293, 2-day incubation
Description: The effects of test compounds on cell viability and apoptosis are determined using the ApoTox-Glo Triplex assay kit (Promega G6320) according to the following protocol. The human cancer cell line (e.g., HepG2) and a non-cancer human cell line (e.g., HEK-293), are seeded at 20,000 cells per well in a 96-well plate. After 1 day, the cells are treated with test compounds at various final concentrations (e.g., 10 nM, 31.6 nM, 100 nM, 316 nM, 1 μM, 3.16 μM, 10 μM, 20 μM, etc.). After a 2-day incubation period, the ApoTox-Glo Triplex assay is performed according to the kit manufacturer's protocol. […] After incubation for 30 minutes at 37° C., the fluorescence signal is measured at two wavelength sets (400Ex/505Em) and (485Ex/520Em) to assess live-cell protease activity and dead-cell protease activity respectively. […] After incubation for 30 minutes at room temperature, the luminescent signal is measured using a microplate reader. […]
The cytotoxic effect of test compounds according to the ApoTox-Glo Triplex assay is calculated as follows. The live-dead ratio is calculated by dividing the fluorescence signal for live-cell protease activity with the fluorescence signal for dead-cell protease activity. […]

[7] = test system: caspase 3/7 activation in HepG2; assay: ApoTox-Glo Triplex assay, caspase 3/7 activation in HepG2; type: cell-based, human; settings: vs DMSO
Description: The effects of test compounds on cell viability and apoptosis are determined using the ApoTox-Glo Triplex assay kit (Promega G6320) according to the following protocol. The human cancer cell line (e.g., HepG2) and a non-cancer human cell line (e.g., HEK-293), are seeded at 20,000 cells per well in a 96-well plate. After 1 day, the cells are treated with test compounds at various final concentrations (e.g., 10 nM, 31.6 nM, 100 nM, 316 nM, 1 μM, 3.16 μM, 10 μM, 20 μM, etc.). After a 2-day incubation period, the ApoTox-Glo Triplex assay is performed according to the kit manufacturer's protocol. In brief, 20 μL of viability/cytotoxicity reagent containing both GF-AFC substrate (cell-permeant substrate to measure live-cell protease activity) and bis-AAF-R110 substrate (cell-impermeant substrate to measure dead-cell protease activity) is added to each sample, and briefly mixed by orbital shaking (300-500 rpm for ˜30 seconds). After incubation for 30 minutes at 37° C., the fluorescence signal is measured at two wavelength sets (400Ex/505Em) and (485Ex/520Em) to assess live-cell protease activity and dead-cell protease activity respectively. Following the measurement of the live-cell and dead-cell protease activities, 25 μl of Caspase-Glo 3/7 Reagent containing a luminogenic DEVD-peptide substrate for caspase-3/7 and thermostable luciferase is added to each sample, and briefly mixed by orbital shaking (1300-1500 rpm for ˜30 seconds). After incubation for 30 minutes at room temperature, the luminescent signal is measured using a microplate reader. The luminescent signal directly correlates with caspase-3/7 activity, which is a key indicator of apoptosis.
The fold-change of caspase 3/7 activation is calculated by dividing the luminescence signal of the compound-treated sample with that of the no-compound, solvent only (DMSO)-treated sample.

Cc1nc(C)c(-c2ccc(=O)n(CC3CCN(c4ncnc5ncccc45)CC3)n2)s1 [6-(2,4-dimethylthiazol-5-yl)-2-((1-(pyrido[2,3-d]pyrimidin-4-yl)piperidin-4-yl)methyl)pyridazin-3(2H)-one]
% reduction of MYC protein [1]: 72%
inhibition at 1 µM [2]: 45%
pIC50 [3]: 6.40
pIC50 [4]: 6.10
pIC50 [5]: 7.00
pIC50 [6]: 4.44
Fold-change of caspase 3/7 activation ([7]; HepG2, compound concentration 10 nM): 1.245
Fold-change of caspase 3/7 activation ([7]; HepG2, compound concentration 31.6 nM): 1.204
Fold-change of caspase 3/7 activation ([7]; HepG2, compound concentration 100 nM): 0.853
Fold-change of caspase 3/7 activation ([7]; HepG2, compound concentration 316 nM): 0.586
Fold-change of caspase 3/7 activation ([7]; HepG2, compound concentration 1000 nM): 0.420
Fold-change of caspase 3/7 activation ([7]; HepG2, compound concentration 3160 nM): 0.371
Fold-change of caspase 3/7 activation ([7]; HepG2, compound concentration 10000 nM): 0.308
Fold-change of caspase 3/7 activation ([7]; HepG2, compound concentration 20000 nM): 0.280
